Measurements reported in ChEMBL document CHEMBL1140521, “Enhanced efficacy of 7-hydroxy-3-methoxycadalene via glycosylation in in vivo xenograft study” (Bioorg Med Chem Lett, 2007).

Key:
HeLa = experiment: Cytotoxicity against human HeLa cells after 24 hrs by WST8 assay; format: functional, cell-based
A549 [1] = experiment: Cytotoxicity against human A549 cells after 24 hrs by WST8 assay; format: functional, cell-based; settings: A549, 24 h
A549 [2] = experiment: Antitumor activity against human A549 cells xenografted athymic BALB/c mouse assessed as reduction in tumor volume at 100 mg/kg/day, po for 28 days; format: functional; parameters: scale not given: the % may be the effect or the level left

Compound | IC50 (HeLa) [µM] | IC50 (A549 [1]) [µM] | Activity (A549 [2]) [%]
COc1cc(C)c2cc(O)c(C)cc2c1C(C)C [CADALENE] | 28.3 | 34.9 | –
COc1cc(C)c2cc(O[C@@H]3O[C@H](CO)[C@@H](O)[C@H](O)[C@H]3O)c(C)cc2c1C(C)C | 231 | 194 | 50
COc1cc(C)c2cc(OCCO[C@H]3O[C@H](CO)[C@@H](O)[C@H](O)[C@H]3O)c(C)cc2c1C(C)C | 161 | 129 | 25
